US20250235427A1, “5-METHOXY-N,N-[…][…] THE TREATMENT OF SOCIAL/EMOTIONAL […] DETACHMENT” (GH RESEARCH IRELAND LIMITED, priority 2022, published 2025)

Test system: patients with postpartum depression (PPD)
Test: Clinical trial, inhaled 5-MeO-DMT individualized dosing regimen in postpartum depression (one patient so far)
Method: The single-arm, open-label clinical trial will involve 15 adult female patients with clinically diagnosed postpartum depression (PPD).
The second dose (12 mg) will only be administered if: • a. […] The 6 mg dose was safe and well-tolerated according to the investigator, • c. Any psychoactive effects (PsE) of the prior dose have subsided, and • d. Pre-dose vital parameters and forced expiratory volume in one second (FEV1) are in normal range, or if outside of the normal range, are not clinically significant according to the investigator. • 3. Similarly, a third dose (18 mg) will only be administered if: • a. […] The 12 mg dose was safe and well-tolerated according to the investigator, and • c. Any PsE of the prior dose have subsided, and • d. Pre-dose vital parameters and forced expiratory volume in one second (FEV1) are in normal range, or if outside of the normal range, are not clinically significant according to the investigator.
The patients will be assessed for a peak psychedelic experience (based on a patient-scored visual analogue scale, the PE scale), sedation, and other endpoints after dosing. Follow-up visits are planned for Day 1, and Day 7 after the dosing day.

COc1ccc2[nH]cc(CCN(C)C)c2c1 [5-MeO-DMT]
BPRS Disorientation score (Day 7, baseline 1): 1 | BPRS Grandiosity improvement (Day 7, baseline 1): 0 | BPRS Grandiosity score (Day 7, baseline 1): 1 | BPRS Hallucinatory behaviour improvement (Day 7, baseline 1): 0 | BPRS Hallucinatory behaviour score (Day 7, baseline 1): 1 | BPRS Hostility improvement (Day 7, baseline 1): 0 | BPRS Hostility score (Day 7, baseline 1): 1 | BPRS Mannerisms and Posturing improvement (Day 7, baseline 1): 0 | BPRS Mannerisms and Posturing score (Day 7, baseline 1): 1 | BPRS Motor retardation improvement (Day 7, baseline 1): 0 | BPRS Motor retardation score (Day 7, baseline 1): 1 | BPRS Suspiciousness improvement (Day 7, baseline 1): 0 | BPRS Suspiciousness score (Day 7, baseline 1): 1 | BPRS Uncooperativeness improvement (Day 7, baseline 1): 0 | BPRS Uncooperativeness score (Day 7, baseline 1): 1 | BPRS Unusual Thought Content improvement (Day 7, baseline 1): 0 | BPRS Unusual Thought Content score (Day 7, baseline 1): 1 | BPRS Excitement improvement (Day 7, baseline 2): 1 | BPRS Excitement score (Day 7, baseline 2): 1 | MADRS Inability to Feel improvement (Day 7, baseline 3): 3 | MADRS Inability to Feel score (Day 7, baseline 3): 0 | MADRS Lassitude improvement (Day 7, baseline 3): 3 | MADRS Lassitude score (Day 7, baseline 3): 0 | MADRS Pessimistic Thoughts improvement (Day 7, baseline 4): 4 | MADRS Pessimistic Thoughts score (Day 7, baseline 4): 0 | MADRS Reported sadness improvement (Day 7, baseline 4): 4 | MADRS Reported sadness score (Day 7, baseline 4): 0 | BPRS Emotional withdrawal improvement (Day 7, baseline 5): 4 | BPRS Emotional withdrawal score (Day 7, baseline 5): 1 | MADRS Apparent sadness improvement (Day 7, baseline 5): 5 | MADRS Apparent sadness score (Day 7, baseline 5): 0 | MADRS Inner Tension improvement (Day 7, baseline 5): 4 | MADRS Inner Tension score (Day 7, baseline 5): 1 | MADRS Reduced Sleep improvement (Day 7, baseline 5): 5 | MADRS Reduced Sleep score (Day 7, baseline 5): 0 | BPRS Depressive Mood improvement (Day 7, baseline 6): 5 | BPRS Depressive Mood score (Day 7, baseline 6): 1 | BPRS Guilt feelings improvement (Day 7, baseline 6): 5 | BPRS Guilt feelings score (Day 7, baseline 6): 1 | BPRS Somatic Concern improvement (Day 7, baseline 6): 5 | BPRS Somatic Concern score (Day 7, baseline 6): 1 | BPRS Tension improvement (Day 7, baseline 6): 5 | BPRS Tension score (Day 7, baseline 6): 1 | BPRS Anxiety improvement (Day 7, baseline 7): 6 | BPRS Anxiety score (Day 7, baseline 7): 1 | BIMF functional domain Adjustment Δ (Day 7) (Day 7 vs Day 0): 1 | BIMF functional domain Infant Care Δ (Day 7) (Day 7 vs Day 0): 0 | BIMF functional domain Management Δ (Day 7) (Day 7 vs Day 0): 5 | BIMF functional domain Mother-Child Interaction Δ (Day 7) (Day 7 vs Day 0): 2 | BIMF functional domain Psychological Well-being Δ (Day 7) (Day 7 vs Day 0): 9 | BIMF functional domain Self Care Δ (Day 7) (Day 7 vs Day 0): 4 | BIMF functional domain Social Support Δ (Day 7) (Day 7 vs Day 0): 1 | BIMF item 1 (I am a good mother) Δ (Day 7) (Day 7 vs Day 0): 0 | BIMF item 2 (I feel rested) Δ (Day 7) (Day 7 vs Day 0): 2 | BIMF item 3 (I am comfortable with the way I've chosen to feed my baby) Δ (Day 7) (Day 7 vs Day 0): 0 | BIMF item 4 (My baby and I understand each other) Δ (Day 7) (Day 7 vs Day 0): 0 | BIMF item 5 (I am able to relax and enjoy time with my baby) Δ (Day 7) (Day 7 vs Day 0): 1 | BIMF item 6 (There are people in my life that I can trust to care for my baby when I need a break) Δ (Day 7) (Day 7 vs Day 0): 0 | BIMF item 8 (I am getting enough adult interaction) Δ (Day 7) (Day 7 vs Day 0): 0 | BIMF item 9 (I am getting enough encouragement from other people) Δ (Day 7) (Day 7 vs Day 0): 1 | BIMF item 10 (I trust my own feelings (instincts) when it comes to taking care of my baby) Δ (Day 7) (Day 7 vs Day 0): 1 | BIMF item 11 (I take a little time each week to do something for myself) Δ (Day 7) (Day 7 vs Day 0): 1 | BIMF item 12 (I am taking good care of my baby's physical needs) Δ (Day 7) (Day 7 vs Day 0): 0 | BIMF item 13 (I am taking good care of my physical needs) Δ (Day 7) (Day 7 vs Day 0): 1 | BIMF item 14 (I make good decisions about my baby's health and well being) Δ (Day 7) (Day 7 vs Day 0): 0 | BIMF item 15 (My baby and I are getting into a routine) Δ (Day 7) (Day 7 vs Day 0): 1 | BIMF item 16 (I worry about how other people judge me (as a mother)) Δ (Day 7) (Day 7 vs Day 0): 2 | BIMF item 17 (I am able to take care of my baby and my other responsibilities) Δ (Day 7) (Day 7 vs Day 0): 0 | BIMF item 18 (Anxiety or worry often interferes with my mothering ability) Δ (Day 7) (Day 7 vs Day 0): 3 | BIMF item 19 (As time goes on, I am getting better at taking care of my baby) Δ (Day 7) (Day 7 vs Day 0): 1 | BIMF item 20 (I am satisfied with the job I am doing as a new mother) Δ (Day 7) (Day 7 vs Day 0): −1 | BPRS Blunted affect improvement (Discharge, baseline 1): 0 | BPRS Blunted affect score (Discharge, baseline 1): 1 | BPRS Conceptual disorganization improvement (Discharge, baseline 1): 0 | BPRS Conceptual disorganization score (Discharge, baseline 1): 1 | BPRS Disorientation improvement (Discharge, baseline 1): 0 | BPRS Disorientation score (Discharge, baseline 1): 1 | BPRS Grandiosity improvement (Discharge, baseline 1): 0 | BPRS Grandiosity score (Discharge, baseline 1): 1 | BPRS Hallucinatory behaviour improvement (Discharge, baseline 1): 0 | BPRS Hallucinatory behaviour score (Discharge, baseline 1): 1 | BPRS Hostility improvement (Discharge, baseline 1): 0 | BPRS Hostility score (Discharge, baseline 1): 1 | BPRS Mannerisms and Posturing improvement (Discharge, baseline 1): 0 | BPRS Mannerisms and Posturing score (Discharge, baseline 1): 1 | BPRS Motor retardation improvement (Discharge, baseline 1): 0 | BPRS Motor retardation score (Discharge, baseline 1): 1 | BPRS Suspiciousness improvement (Discharge, baseline 1): 0 | BPRS Suspiciousness score (Discharge, baseline 1): 1 | BPRS Uncooperativeness improvement (Discharge, baseline 1): 0 | BPRS Uncooperativeness score (Discharge, baseline 1): 1 | BPRS Unusual Thought Content improvement (Discharge, baseline 1): 0 | BPRS Unusual Thought Content score (Discharge, baseline 1): 1 | BPRS Excitement improvement (Discharge, baseline 2): 1 | BPRS Excitement score (Discharge, baseline 2): 1 | BPRS Emotional withdrawal improvement (Discharge, baseline 5): 4 | BPRS Emotional withdrawal score (Discharge, baseline 5): 1 | BPRS Depressive Mood improvement (Discharge, baseline 6): 5 | BPRS Depressive Mood score (Discharge, baseline 6): 1 | BPRS Guilt feelings improvement (Discharge, baseline 6): 5 | BPRS Guilt feelings score (Discharge, baseline 6): 1 | BPRS Somatic Concern improvement (Discharge, baseline 6): 5 | BPRS Somatic Concern score (Discharge, baseline 6): 1 | BPRS Tension score (Discharge, baseline 6): 1 | BPRS Anxiety improvement (Discharge, baseline 7): 6 | BPRS Anxiety score (Discharge, baseline 7): 1 | ECG, safety laboratory analyses, CADSS (ECG 3 hours, laboratory 7 days, CADSS 3 hours, 1 day and 7 days): unremarkable | changes in vital parameters (shortly after administration): temporary, clinically non-relevant increase in heart rate and blood pressure
